These results are taken from US20240082212A1, “USE OF MDMA FOR TREATMENT OF STRESS-RELATED DISORDERS” (priority 2022, published 2024).

The subject of data set [1] is L-type calcium channel phenylalkylamine binding site. In words: Eurofins Panlabs radioligand binding panel, L-type calcium channel. To be noted: for % inhibition of binding or activity: 10 uM; for IC50 / Ki: 10 half-log concentrations, 0.3 nM to 10 μM, duplicate. Details: species or system Rat.
The test system of data set [2] is C57BL/6 mice. In words: Mouse locomotor activity over 11 days after single administration. How it is done: Methods. Male C57BL/6 mice (n=10-12 per group) from Jackson Laboratories, US (10-12 weeks of age), were assigned randomly to treatment groups. The animals were acclimated to the laboratory for at least five days prior to experimental manipulation. […] Standard rodent chow and water were available ad libitum, except during experimental test sessions. Animals were maintained in a controlled environment, and temperature and humidity were recorded continuously in the holding room.
The animal procedures were conducted according to established and approved protocols. On each experimental day, animals were acclimated to a procedure room adjacent to the testing room for at least 30 minutes prior to the start of experimental sessions. To evaluate acute compound effects on activity, an animal was administered a single dose of test article 30 minutes prior to individual placement in a novel test chamber on experimental day 1. Activity was detected using photo beams (e.g., 16×16 beams with a space of 2 cm between beams, Med Associates®) and recorded using the Activity Monitor™ program designed by Med Associates®. The primary endpoint was total distance traveled (cm), as a measure of locomotion. Additional activity measures included total ambulatory counts, ambulatory time (sec), vertical counts and vertical time (sec). All endpoints were recorded and analyzed over a 30-minute test period. At the end of the test session, each animal was returned to its home cage. To evaluate potential lasting effects on activity following single administration of compounds, each animal was re-evaluated in the same test chamber on experimental days 2, 6, and 11, without additional test article administration.
Animals were randomly assigned to treatment groups and testing was conducted in a manner counterbalancing treatment groups. Activity measures were analyzed statistically using 2-way analysis of variance (ANOVA) with experimental day as the within-subjects factor and treatment as the between-subjects factor. Following a significant overall ANOVA (p<0.05), post hoc comparisons between test article and vehicle conditions were made using Fisher's Least Significant Difference (LSD, p<0.05).

Data set [3] has as its system C57BL/6 mice. The data set is described as follows: Mouse extinction of conditioned fear assay. Format: in vivo. The procedure: Racemic MDMA and R(−)-MDMA were evaluated for extinction of fear memory. The study utilized a mouse extinction of conditioned fear assay. A conditioned fear response is induced by pairing a previously neutral stimulus (conditioned stimulus; CS, such as an auditory tone) and aversive stimulus (unconditioned stimulus; US, such as […]). The fear response is later extinguished with repeated re-exposure to the CS in the absence of the US. This is a useful model for understanding learning and memory processes required for long-term recovery from PTSD, because it resembles exposure-based therapy, wherein repeated exposure to a fear-eliciting stimulus or memory promotes a reduced fear response to future reminders of the trauma. […] The current experiment investigated the ability of varying doses of R(−)-MDMA to facilitate extinction of conditioned fear in mice.
Standard rodent chow and water was available ad libitum.
The animal procedures were conducted according to established protocols approved by the IACUC committee and Melior Discovery Inc. Standard Operation Procedures (SOP). The behavioral procedure was adapted from Young et al., Transl Psychiatry 5, e634 (2015) with slight modifications. Mice were handled for two consecutive days for four minutes each day and injected with drug vehicles prior to the experiment. […] Fear conditioning was conducted in individual automated chambers built by Kinder Scientific (Poway, CA) that detect movement with infrared beams. On Day 1, Conditioning, each animal was placed in a chamber and presented a training session (Context A). An almond scent was present under the grid floor during the entire session. The training procedure consisted of a 2-minute habituation followed by a 30-second, 80 dB tone (CS). During the last 2 seconds of the tone, the animal received a 1 mA foot shock (US). This US-CS procedure occurred once for a total of one paired presentation of tone and shock. Freezing behavior (immobility) was recorded in 5-second intervals during the session. Percent baseline freezing behavior was determined in the 2-minute habituation period. After the session, animals were returned to their cages in the holding room. Animals were not manipulated on Day 2. On Day 3, Extinction Training, two days (48 hours) following fear conditioning, each animal was placed in Context B, in which the tactile and odor cues of the conditioning chambers were altered with a different (lemon) scent and black Plexiglas floor placed over the grid floor. Following a 2-minute acclimation period, the animal received four 30-second presentations of the CS (tone) in the absence of the US (foot shock), with a 45-second interval between presentations and 30 seconds of chamber consolidation. Immobility was recorded in 5-second intervals to measure baseline freezing response to the altered context, and freezing response to each tone/cue presentation. On Day 3, each animal was administered vehicle or racemic MDMA by intraperitoneal (IP) injection at 30 minutes prior, to the extinction training session. On Days 4, 8, and 13, Extinction Testing sessions, each animal was placed in Context B. Following a 2-minute acclimation period, each animal received four 30-second presentations of the CS (tone) in the absence of the US (foot shock), with a 45-second interval between presentations and 30 seconds of chamber consolidation. Immobility was recorded in 5-second intervals to measure baseline freezing response to the altered context, and freezing response to each tone/cue presentation.
Each animal in each treatment group received IP administration of vehicle or R(−)-MDMA or racemic MDMA at 30 minutes prior to extinction training on day 3. […] Injection volumes were 10 mL/kg. The study was run in 2 cohorts. Data were presented as mean±standard error of the mean of the percentage (%) of the session time spent freezing (absence of movement other than respiration) or activity counts during the 2-minute acclimation period.

Data set [4] has as its target Nicotinic acetylcholine α3β4 (Homo sapiens, UniProt P30926+P32297). In words: Eurofins Panlabs radioligand binding panel, nicotinic acetylcholine α3β4.
Where [5] appears, read: R-MDMA all 3 dose levels (10, 17, 30 mg/kg IP), only on Day 1.
Setting [6] is: Days 8 and 13, single R-MDMA 30 mg/kg IP on Day 3.
Where [7] appears, read: racemic MDMA 7.8 mg/kg IP, Day 1, persisted out to Day 2, vs vehicle.
Where [8] appears, read: racemic MDMA 7.8 mg/kg IP, any day of testing (Days 1, 2, 6, 11).
The mark [9] stands for this setting: Day 3, racemic MDMA 7.8 mg/kg IP.
The mark [10] stands for this setting: Day 4, racemic MDMA 7.8 mg/kg IP.
The mark [11] stands for this setting: Days 8 and 13, single racemic MDMA 7.8 mg/kg IP on Day 3.

Sequence of Nicotinic acetylcholine α3β4 (P32297 32-505): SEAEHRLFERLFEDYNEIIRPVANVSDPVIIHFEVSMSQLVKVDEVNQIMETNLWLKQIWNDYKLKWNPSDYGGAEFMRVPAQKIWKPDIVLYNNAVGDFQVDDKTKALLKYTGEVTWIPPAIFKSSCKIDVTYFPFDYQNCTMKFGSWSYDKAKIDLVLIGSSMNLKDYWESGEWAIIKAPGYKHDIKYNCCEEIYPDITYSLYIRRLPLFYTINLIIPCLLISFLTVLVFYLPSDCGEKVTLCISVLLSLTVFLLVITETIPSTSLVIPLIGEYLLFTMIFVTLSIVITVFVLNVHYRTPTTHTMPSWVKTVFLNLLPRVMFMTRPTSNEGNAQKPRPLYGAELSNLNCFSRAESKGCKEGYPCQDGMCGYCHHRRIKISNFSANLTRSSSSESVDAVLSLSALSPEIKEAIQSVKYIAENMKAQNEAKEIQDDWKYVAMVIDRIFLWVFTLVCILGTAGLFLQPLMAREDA
Sequence of Nicotinic acetylcholine α3β4 (P30926 22-498): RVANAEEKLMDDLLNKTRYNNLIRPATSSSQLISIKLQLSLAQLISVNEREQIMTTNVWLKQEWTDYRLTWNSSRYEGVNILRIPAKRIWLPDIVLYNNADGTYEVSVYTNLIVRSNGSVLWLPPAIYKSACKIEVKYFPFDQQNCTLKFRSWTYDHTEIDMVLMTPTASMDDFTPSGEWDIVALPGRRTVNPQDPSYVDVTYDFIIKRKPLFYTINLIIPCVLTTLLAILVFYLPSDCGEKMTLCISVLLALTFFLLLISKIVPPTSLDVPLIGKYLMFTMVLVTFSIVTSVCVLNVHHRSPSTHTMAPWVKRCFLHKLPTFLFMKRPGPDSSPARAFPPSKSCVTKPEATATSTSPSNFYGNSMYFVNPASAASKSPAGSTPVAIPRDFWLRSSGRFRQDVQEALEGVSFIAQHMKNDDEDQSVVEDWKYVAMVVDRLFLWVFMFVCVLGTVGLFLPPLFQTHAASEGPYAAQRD

Regarding `CNC(C)Cc1ccc2c(c1)OCO2` (single isomer, unassigned) [R-MDMA, R(−)-3,4-methylenedioxymethamphetamine], in data set [1], the “% inhibition of binding or activity” value came out at 55%. Moreover, the IC50 in data set [1] was found to be 9.5 µM. For the same compound, the Ki in data set [1] is 9.23 µM. Further, the total ambulatory time entry in the data set on C57BL/6 mice [2] (R-MDMA 2 highest doses (17, 30 mg/kg IP), only on Day 1) was “significantly increased”. Also, the total distance traveled result with C57BL/6 mice [2] (R-MDMA 10, 17, 30 mg/kg IP, any dose, any day of testing) is “no significant increase”. Moreover, the total vertical counts entry in the data set with C57BL/6 mice [2] (setting [5]) is “significantly reduced”. Besides, the total vertical time result was “significantly reduced” with C57BL/6 mice [2] (setting [5]) and “significant increase” in the data set with C57BL/6 mice [2] (R-MDMA lowest dose (10 mg/kg IP), day 2 only). The total ambulatory counts entry with C57BL/6 mice [2] (R-MDMA highest dose (30 mg/kg IP), only on Day 1) is “significantly increased”. In addition, the freezing vs vehicle result with C57BL/6 mice [3] (Day 3 (extinction training, single IP dose 30 min prior), R-MDMA 17 and 30 mg/kg) is given as “reduced freezing”; with C57BL/6 mice [3] (Day 3, R-MDMA 10 mg/kg IP), “no significant effect on freezing”; in the data set with C57BL/6 mice [3] (Day 4 (day after single dose), R-MDMA 10, 17 and 30 mg/kg IP), “significantly reduced freezing”; in the data set with C57BL/6 mice [3] (setting [6]), “significantly reduced freezing”. Also, the “activity counts vs vehicle” value in the data set with C57BL/6 mice [3] (Day 3, all doses of R-MDMA (10, 17, 30 mg/kg IP)) is “Significantly increased activity counts”; in the data set with C57BL/6 mice [3] (Day 4, R-MDMA 30 mg/kg IP), “significantly increased activity”; in the data set on C57BL/6 mice [3] (setting [6]), “significant increases in activity”. Further, the activity vs vehicle result in the data set with C57BL/6 mice [3] (Day 4, R-MDMA 10 mg/kg IP) was “without a significant increase in activity”. Moreover, the “locomotor activity vs vehicle” value in the data set on C57BL/6 mice [3] (Days 3, 4, 8, 13, R-MDMA 17 mg/kg IP on Day 3) was “significantly increased locomotor activity only on the day of administration”. The freezing significantly reduced result with C57BL/6 mice [3] (Days 8 and 13, single R-MDMA 17 mg/kg IP on Day 3) was “but not on Days 8 and 13”. The inhibition at 10 µM in data set [4] (read-out: % inhibition of binding or activity) worked out at 55%.

`CNC(C)Cc1ccc2c(c1)OCO2` (racemic) [Racemic MDMA, 3,4-methylenedioxymethamphetamine]: the total distance traveled result with C57BL/6 mice [2] (racemic MDMA 7.8 mg/kg IP, Day 1, persisted out to Day 2, 30-minute test, vs vehicle) was “significantly increased”. For the same compound, in the data set with C57BL/6 mice [2] (setting [7]), the total ambulatory counts result is given as “increased” and the total ambulatory time entry was “increased”. Further, in the data set with C57BL/6 mice [2] (setting [8]), the total vertical counts result is given as “did not alter” and the total vertical time entry is “did not alter”. Also, in the data set with C57BL/6 mice [3] (setting [9]), the “activity counts vs vehicle” value is on record as “significant increase in activity” and the freezing vs vehicle entry is reported as “significantly reduced freezing”. In the data set with C57BL/6 mice [3] (setting [10]), the “activity counts vs vehicle” value was “significantly increased activity” and the freezing vs vehicle entry is “significantly reduced freezing”. Besides, in the data set with C57BL/6 mice [3] (setting [11]), the “activity counts vs vehicle” value is recorded as “significant increases in activity” and the freezing vs vehicle result is given as “significantly reduced freezing”. Besides, the “% inhibition of binding or activity” value in data set [4] (10 uM) stood at 66%.

As for `CNC(C)Cc1ccc2c(c1)OCO2` (single isomer, unassigned) [S-MDMA, S(+)-MDMA], in data set [1], the “% inhibition of binding or activity” value is listed as 51%, the IC50 is 9.31 µM and the Ki was found to be 9.05 µM.

Usually IC50 stands for the midpoint of a concentration-inhibition curve. Usually Ki stands for the equilibrium dissociation constant of an inhibitor or competing ligand from its target. The term inhibition denotes the drop in the measured response relative to a control, in per cent.
